From patent US10674699B2, “Endophyte enhanced seedlings with increased pest tolerance” (priority 2006, dated 2020)

Test system: Lambdina fiscellaria (hemlock looper) larvae
Test: Dietary rugulosin in artificial diet, hemlock looper larvae
Format: in vivo
Conditions: 1 week
Method: The toxicity of an endophyte toxin on a pest such as hemlock looper is optionally tested according to the following method. The toxin to be tested is incorporated into an artificial diet suitable for pest growth. Artificial diet is prepared in individual cups, containing toxin concentrations of 5 micromolar, 10 micromolar, 25 micromolar, 50 micromolar and 100 micromolar. One 3rd instar insect is added to each of 75 cups per dilution and incubated in a growth chamber under appropriate conditions such as at 22 C, 55% relative humidity with 16 h light/day. After 4 days, the insects are frozen, weighed and their head capsules measured. A reduction in head capsule size (eg. width) or weight compared to a control sample is indicative of the presence of a toxin. One skilled in the art would understand that this method can be modified to test different concentrations of toxin and that the conditions can be modified to test a variety of different pests.
Lambdina fiscellaria eggs (hemlock looper) were purchased from Forestry Canada in three lots. The eggs were incubated at room temperature for 10 d until larvae emerged. Larvae from each batch emerged within two days of each other and were immediately put on diet in cups as above. […] After 1 week on the test diets, the larvae were frozen, weighed and head capsule width determined.

Q: Which “dietary rugulosin concentration with significantly reduced head capsule” value does the source give for `Cc1cc(O)c2c(c1)C(=O)[C@]13C(=C2O)C(=O)[C@@H]2[C@H](O)[C@H]1[C@@H]1[C@@H](O)[C@H]3C(=O)C3=C(O)c4c(O)cc(C)cc4C(=O)[C@]312` [rugulosin] here?
A: 150 µM
